According to US10039759B2, “Quinolines as FGFR kinase modulators” (priority 2011, dated 2018):

Tests used:
[1] = test system: Ba/F3-FGFR3-transfected cells; experiment: Ba/F3-FGFR3 (minus IL3 or plus IL3) cellular proliferation assay, Alamar Blue; format: cell-based; details: plus IL3 (10 ng/ml murine IL3, counterscreen), 24 hours, Alamar Blue; for IC50: read-out: BAF3-FGFR3 (PLUS IL3 Alamar Blue pIC50) (converted)
In short: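 Ba/F3-FGFR3 cells (20000 per well) in phenol red-free RPMI-1640 with 10% FBS were exposed to compound (10 μM to 0.1 nM) for 24 h at 37° C. Alamar Blue was then added for 4 h and fluorescence read (ex 540, em 590 nm) to give IC50/pIC50; the counterscreen was run with 10 ng/ml murine IL3.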

[2] = test system: Ba/F3-KDR-transfected cells; experiment: Ba/F3-KDR (minus IL3 or plus IL3) cellular proliferation assay, Alamar Blue; format: cell-based; details: plus IL3 (10 ng/ml murine IL3, counterscreen), 24 hours, Alamar Blue; for IC50: read-out: BAF3-KDR (PLUS IL3 Alamar Blue pIC50) (converted)
In short: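 Ba/F3-KDR cells, 20000 per well, exposed to compounds (10 μM to 0.1 nM) for 24 h at 37°C in RPMI/10% FBS, then Alamar Blue for 4 h; fluorescence ex 540/em 590 nm gives IC50 and pIC50. Counterscreen run with 10 ng/ml murine IL3.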

[3] = target: T1, Ba/F3-Flt3-transfected cells (Homo sapiens, UniProt P36888, cells depend on it, form not given); experiment: Ba/F3-Flt3 (minus IL3 or plus IL3) cellular proliferation assay, Alamar Blue; format: cell-based; details: minus IL3, 24 hours
T1 construct: BAF3-FLT3 (MIN IL3 Alamar Blue pIC50); other: minus IL3; 24 hours, Alamar Blue
T1 sequence (P36888 1-993): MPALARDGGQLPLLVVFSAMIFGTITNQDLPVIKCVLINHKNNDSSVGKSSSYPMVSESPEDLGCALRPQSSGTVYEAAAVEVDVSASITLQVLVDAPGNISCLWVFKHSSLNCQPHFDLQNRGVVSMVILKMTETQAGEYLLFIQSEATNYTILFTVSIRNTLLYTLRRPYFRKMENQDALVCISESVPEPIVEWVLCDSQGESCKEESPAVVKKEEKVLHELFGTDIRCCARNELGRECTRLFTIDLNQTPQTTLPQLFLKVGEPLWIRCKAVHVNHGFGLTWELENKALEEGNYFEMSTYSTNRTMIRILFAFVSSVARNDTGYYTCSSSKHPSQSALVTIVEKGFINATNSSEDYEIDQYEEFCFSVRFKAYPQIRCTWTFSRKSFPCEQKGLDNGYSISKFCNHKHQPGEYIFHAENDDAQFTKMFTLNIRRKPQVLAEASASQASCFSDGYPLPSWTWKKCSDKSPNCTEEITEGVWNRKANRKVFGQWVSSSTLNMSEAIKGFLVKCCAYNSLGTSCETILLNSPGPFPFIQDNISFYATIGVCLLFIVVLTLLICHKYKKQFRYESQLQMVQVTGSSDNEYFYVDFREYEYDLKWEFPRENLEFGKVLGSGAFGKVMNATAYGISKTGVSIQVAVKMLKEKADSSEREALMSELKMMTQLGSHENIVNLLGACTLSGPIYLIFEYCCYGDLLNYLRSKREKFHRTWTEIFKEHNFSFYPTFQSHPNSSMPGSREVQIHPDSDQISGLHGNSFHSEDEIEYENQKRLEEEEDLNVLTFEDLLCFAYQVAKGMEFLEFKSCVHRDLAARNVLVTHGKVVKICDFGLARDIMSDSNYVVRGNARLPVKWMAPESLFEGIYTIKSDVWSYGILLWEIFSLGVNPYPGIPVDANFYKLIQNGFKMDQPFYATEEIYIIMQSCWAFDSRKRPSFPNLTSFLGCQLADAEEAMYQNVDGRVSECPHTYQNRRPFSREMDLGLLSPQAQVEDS
Protocol: Ba/F3-Flt3 (Minus IL3 or Plus IL3) (Cellular Proliferation Assay)
In a 384 well plate, 100 nl of compound dilution in DMSO was sprayed before adding 50 μl cell culture medium (phenol red free RPMI-1640, 10% FBS, 2 mM L-Glutamine and 50 μg/ml Gentamycin) containing 20000 cells per well of Ba/F3-Flt3-transfected cells. Cells were put in an incubator at 37° C. and 5% CO2. After 24 hours, 10 μl of Alamar Blue solution (0.5 mM K3Fe(CN)6, 0.5 mM K4Fe(CN)6, 0.15 mM Resazurin and 100 mM Phosphate Buffer) was added to the wells, incubated for 4 hours at 37° C. and 5% CO2 before RFU's (Relative Fluorescence Units) (ex. 540 nm., em. 590 nm.) were measured in a fluorescence plate reader.
In this assay, the inhibitory effect of different compound concentrations (range 10 μM to 0.1 nM) was determined and used to calculate an IC50 (M) and pIC50 (−log IC50) value. As a counterscreen the same experiment was performed in the presence of 10 ng/ml murine IL3.

FGFR1 (h) = FGFR1 (h) (Homo sapiens, UniProt P11362); experiment: FGFR1 (enzymatic assay), TR-FRET; format: biochemical; details: FGFR 1 pIC50, 5 μM ATP, 60 min; pIC50 = -log IC50 (M); average if tested multiple times
FGFR1 (h), sequence (P11362 22-822): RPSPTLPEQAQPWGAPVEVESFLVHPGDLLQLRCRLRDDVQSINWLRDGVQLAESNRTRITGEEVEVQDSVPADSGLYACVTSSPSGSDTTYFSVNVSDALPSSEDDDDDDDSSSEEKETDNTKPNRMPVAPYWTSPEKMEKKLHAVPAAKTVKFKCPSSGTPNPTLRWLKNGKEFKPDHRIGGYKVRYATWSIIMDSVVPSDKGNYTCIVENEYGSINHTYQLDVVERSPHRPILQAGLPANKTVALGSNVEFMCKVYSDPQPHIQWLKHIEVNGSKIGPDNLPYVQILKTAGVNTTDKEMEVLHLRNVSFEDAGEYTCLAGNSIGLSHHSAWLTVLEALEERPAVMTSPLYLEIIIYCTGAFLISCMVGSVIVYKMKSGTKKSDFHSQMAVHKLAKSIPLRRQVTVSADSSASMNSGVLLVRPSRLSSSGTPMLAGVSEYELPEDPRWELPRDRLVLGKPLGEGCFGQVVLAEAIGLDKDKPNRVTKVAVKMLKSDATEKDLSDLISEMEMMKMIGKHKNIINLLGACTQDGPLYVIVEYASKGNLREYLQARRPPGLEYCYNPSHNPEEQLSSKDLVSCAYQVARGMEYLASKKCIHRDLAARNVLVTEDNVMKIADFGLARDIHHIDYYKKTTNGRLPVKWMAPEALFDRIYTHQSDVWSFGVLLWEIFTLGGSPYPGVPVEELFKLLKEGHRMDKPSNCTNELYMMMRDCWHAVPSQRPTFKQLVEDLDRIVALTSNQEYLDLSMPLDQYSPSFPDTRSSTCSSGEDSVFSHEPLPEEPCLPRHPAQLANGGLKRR

| SMILES | IC50 [1] | IC50 [2] | BAF3-FLT3 (MIN IL3 Alamar Blue pIC50) [3] | BAF3-FGFR3 (PLUS IL3 Alamar Blue pIC50) [1] | BAF3-KDR (PLUS IL3 Alamar Blue pIC50) [2] | IC50 (FGFR1 (h)) | melting point |
| --- | --- | --- | --- | --- | --- | --- | --- |
| COc1cc(OC)cc(N(CC(O)C(F)(F)F)c2ccc3ncc(-c4cnn(C)c4)cc3c2)c1 (single isomer, unassigned) [Compound 24] | > 10 µM | > 10 µM | <5 |  |  |  |  |
| COc1cc(OC)cc(N(CC(O)C(F)(F)F)c2ccc3ncc(-c4cnn(C)c4)cc3c2)c1 (single isomer, unassigned) [Compound 25] |  |  | <5 | <5 | <5 |  |  |
| COc1cc(OC)cc(N(CCNC(C)C)c2ccc3ncc(-c4cnn(C)c4)cc3c2)c1 [Compound 1] |  |  | ~5 |  |  |  |  |
| COc1cc(OC)c(F)c(N(CCNC(C)C)c2ccc3ncc(-c4cnn(C)c4)cc3c2)c1 [Compound 2] |  |  | 5.34 |  |  | 1.32e-09 M |  |
| COc1cc(OC)cc(N(CCCO)c2ccc3ncc(-c4cnn(C)c4)cc3c2)c1 [Compound 4] | > 10 µM | > 10 µM | 5.35 |  |  | 1.91e-08 M |  |
| COc1cc(OC)cc(N(CCCNCC(F)(F)F)c2ccc3ncc(-c4cnn(C)c4)cc3c2)c1 [Compound 5] |  |  | 5.06 |  |  |  |  |
| C#CCN(c1cc(OC)cc(OC)c1)c1ccc2ncc(-c3cnn(C)c3)cc2c1 [Compound 6] | > 10 µM | > 10 µM | 5.2 |  |  | 1.51e-08 M |  |
| COc1cc(OC)cc(N(CC2CCN(c3nccc(OC)n3)C2)c2ccc3ncc(-c4cnn(C)c4)cc3c2)c1 (stereo not drawn) [Compound 7] | > 10 µM | > 10 µM | <5 |  |  |  | 132 °C |
| COc1cc(OC)cc(N(Cc2ncccn2)c2ccc3ncc(-c4cnn(C)c4)cc3c2)c1 [Compound 8] | > 10 µM | > 10 µM | <5.47 |  |  |  | 151 °C |
| COc1cc(OC)cc(N(Cc2nccn2S(=O)(=O)N(C)C)c2ccc3ncc(-c4cnn(C)c4)cc3c2)c1 [Compound 9] | > 10 µM | > 10 µM | <5 |  |  | 5.62e-09 M |  |
| COc1cc(OC)cc(N(CCCN2CCCC2=O)c2ccc3ncc(-c4cnn(C)c4)cc3c2)c1 [Compound 10] |  |  | <5 |  |  |  |  |
| COc1cc(OC)cc(N(CCCN)c2ccc3ncc(-c4cnn(C)c4)cc3c2)c1 [Compound 11] | > 10 µM | > 10 µM | <5 |  |  | 3.63e-09 M |  |
| COc1cc(OC)cc(N(CCNC(C)C)c2ccc3ncc(-c4cnn(CCS(C)(=O)=O)c4)cc3c2)c1 [Compound 14] | > 10 µM | > 10 µM | <5 |  |  |  | 129 °C |
| COc1cc(OC)cc(N(CC#Cc2nccc(OC)n2)c2ccc3ncc(-c4cnn(C)c4)cc3c2)c1 [Compound 16] |  |  | 5.19 |  |  | 9.33e-09 M | 203 °C |
| COc1cc(OC)cc(N(CC#Cc2ncccc2OC)c2ccc3ncc(-c4cnn(C)c4)cc3c2)c1 [Compound 17] | > 10 µM | > 10 µM | <5 |  |  | 8.32e-08 M |  |
| COc1cc(OC)cc(N(CCCN2CCCO2)c2ccc3ncc(-c4cnn(C)c4)cc3c2)c1 [Compound 19] |  |  | 6.03 |  |  |  |  |
| COc1cc(OC)cc(N(CCNC(C)C)c2ccc3ncc(-c4cn[nH]c4)cc3c2)c1 [Compound 21] | > 10 µM | > 10 µM | 5.09 |  |  |  |  |
| COc1cc(OC)cc(N(CCNC(C)C)c2ccc3ncc(-c4cnn(C5CCCCO5)c4)cc3c2)c1 (stereo not drawn) [Compound 22] | > 10 µM | > 10 µM | 5.22 |  |  | 1.2e-09 M |  |
| COc1cc(OC)c(F)c(N(CC#Cc2ncccc2OC)c2ccc3ncc(-c4cnn(C)c4)cc3c2)c1 [Compound 26] |  |  | 5.16 |  |  | 4.79e-09 M |  |
| COc1cccnc1C#CCN(c1ccc2ncc(-c3cnn(C)c3)cc2c1)c1c(F)c(OC)cc(OC)c1F [Compound 27] |  |  | <5 |  |  | 1.64e-09 M |  |
| CNCCN(c1ccc2ncc(-c3cnn(C)c3)cc2c1)c1c(F)c(OC)cc(OC)c1F [Compound 43] |  |  | 5.24 |  |  | 1.07e-09 M |  |
| COc1cc(OC)cc(N(CCCN2CCCC2CNS(=O)(=O)C(F)(F)F)c2ccc3ncc(-c4cnn(C)c4)cc3c2)c1 (stereo not drawn) [Compound 47] | > 10 µM | > 10 µM | 5.14 |  |  | 1.17e-09 M |  |
| COc1cc(OC)cc(N(CC#Cc2nccn2C)c2ccc3ncc(-c4cnn(C)c4)cc3c2)c1 [Compound 48] | > 10 µM | > 10 µM | 5.23 |  |  |  |  |
| COc1cc(OC)cc(N(Cc2ncc[nH]2)c2ccc3ncc(-c4ccncc4)cc3c2)c1 [Compound 57] |  |  | <5 |  |  | 2.82e-09 M |  |
| COc1cc(OC)cc(N(Cc2nccn2S(=O)(=O)N(C)C)c2ccc3ncc(-c4ccncc4)cc3c2)c1 [Compound 58] | > 10 µM | > 10 µM | <5 |  |  |  |  |
| COc1cc(OC)cc(N(Cc2ncc[nH]2)c2ccc3ncc(-c4cccnc4)cc3c2)c1 [Compound 59] | > 10 µM | > 10 µM | <5 |  |  | 4.68e-09 M |  |
| COc1cc(OC)cc(N(Cc2nccn2S(=O)(=O)N(C)C)c2ccc3ncc(-c4cccnc4)cc3c2)c1 [Compound 60] |  |  | <5 |  |  |  |  |
| COc1cc(Nc2ccc3ncc(-c4cnn(C5CCCCO5)c4)cc3c2)cc(OC)c1 (stereo not drawn) [Int. 8] | > 10 µM | > 10 µM | <5 |  |  | 9.55e-08 M |  |
